# Source: US12544348B2, “Methods for treating APOE4/4-associated disorders” (The Regents of the University of California, priority 2018, dated 2026)
# Tested on: apoE4/4-iPSC-derived human neurons
# Assay: RNA-Seq analysis of apoE4/4-iPSC-derived human neurons
# Assay type: cell-based
# Conditions: 10 μM, 6 hours
# Excerpt: Neuronal Differentiation of Human apoE4/4-iPSCs. Human iPS lines were generated from skin fibroblasts of a subject with apoE4/4 genotype and were maintained under feeder-free conditions in mTeSR1 medium (STEMCELL Technologies). Human apoE4/4-iPSCs were routinely passaged at 1:2-1:4 by brief treatment with Accutase (Millipore) and scraping. The human iPSC protocol was approved by the Committee on Human Research at the University of California. The apoE4/4-iPSCs were differentiated into neurons as reported with modifications. iPSCs were treated with collagenase IV (Stem Cell Technologies) and grown in suspension as embryoid bodies in hES medium without bFGF. The medium was replaced every day for 5 days. On day 5, embryoid bodies were grown in Neural Induction Medium containing Dulbecco's modified Eagle's medium/F12 and Neurobasal Medium (1:1, Thermo Fisher), 1% N2 Supplement (Life Technologies), 1% B27 Supplement (Life Technologies), nonessential amino acids, and 0.5% penicillin/streptomycin (Life Technologies) supplemented with inhibitors of the TGF-β receptor (SB431542, Stemgent; 5 μM) and the bone morphogenetic protein receptor (LDN-193189, Stemgent; 0.25 μM). On day 7, spheres were transferred to wells coated with Matrigel (BD Biosciences) and grown in Neural Progenitor Medium, which consisted of Neural Induction Medium without SB and LDN, but containing 10 ng/ml bFGF (PeproTech), 10 ng/ml epidermal growth factor (EGF) (PeproTech), and 2 μg/ml heparin (Sigma). Attached neuroepithelial cells were fed every other day for 7 days. Neural rosette structures appeared by around day 15, were lifted off the plate, and grown in suspension in Neural Progenitor Medium to form neurospheres. For neuronal differentiation, neurospheres were dissociated with Accutase and plated on culture plates coated with 100 μg/ml poly-1-ornithine (Sigma) and 10 μg/ml laminin (Sigma). Neuronal cultures were maintained in Neural Differentiation Medium consisting of Neural Progenitor Medium, brain-derived neurotrophic factor (10 ng/ml; PeproTech), and glial cell-derived growth factor (10 ng/ml; PeproTech) without bFGF, EGF, or heparin. Neurons were observed after several days and were further differentiated for 30 days or longer. Most of the experiments were performed on the neuronal culture differentiated beyond 8 weeks. This culture condition generated neuronal cells with 75±4% vGLUT^+ total glutamatergic excitatory neurons, 15±3% GABA^+ GABAergic inhibitory neurons, and 5±2% TH^+ dopaminergic neurons. RNA-Seq Analysis of Human ApoE4/4-iPS-derived Neurons. Total RNA was extracted and purified from apoE4/4-iPSC-derived human neurons with the Qiagen RNeasy Micro kit, which included a DNase treatment. cDNA was generated from full-length RNA (50 ng per sample) with the NuGEN RNA-Seq V2 kit, which uses the single primer isothermal amplification method to deplete ribosomal RNA, and sheared by Covaris to yield fragments of uniform size. The NuGen Ultralow system V2 was used for adding adapters and for barcoding and amplification. The resulting RNA libraries were purified with Agencourt XP magnetic beads, and quantified by qPCR after quality control with an Agilent Bioanalyzer. The libraries were pooled and sequenced with a HiSeq 4000 instrument (Illumina) for single-end (SE50) sequencing. Sequence data were aligned with the STAR short read aligner and counts per feature were obtained with the featureCounts function from the Subread package. […]
# [1] = vs vehicle, P<0.05 by Monte Carlo Simulation
structure (smiles),measurement,setting,value
"CCCCNc1cc(C(=O)O)cc(S(N)(=O)=O)c1Oc1ccccc1 [bumetanide, 3-(butylamino)-4-phenoxy-5-sulfamoylbenzoic acid]",number of pathways also shared with the apoE4/4 AD signature from humans,,4
same,number of pathways overlapping with mouse hippocampal neuronal cells exhibiting the predicted drug effect,,14
same,number of significantly perturbed pathways,,27
same,shift in FC rank of genes downregulated in apoE4/4 AD,[1],shifted upward towards lower rank numbers
same,shift in FC rank of genes upregulated in apoE4/4 AD,[1],shifted downward towards higher rank numbers
